Experiment in all cases: Radioligand Binding Assay
The target of assay [1] is T1, Adenosine receptor A2b (Homo sapiens, UniProt P29275).
T1 sequence (P29275 whole entry): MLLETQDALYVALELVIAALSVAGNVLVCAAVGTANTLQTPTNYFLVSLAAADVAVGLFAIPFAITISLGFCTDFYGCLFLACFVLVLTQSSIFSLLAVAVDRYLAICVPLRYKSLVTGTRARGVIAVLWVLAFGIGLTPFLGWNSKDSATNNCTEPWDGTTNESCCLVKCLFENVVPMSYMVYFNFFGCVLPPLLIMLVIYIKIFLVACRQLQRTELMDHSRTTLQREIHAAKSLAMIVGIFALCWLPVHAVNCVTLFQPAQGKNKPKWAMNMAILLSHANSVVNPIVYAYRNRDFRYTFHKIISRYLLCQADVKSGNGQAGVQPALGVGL

Assay [2] deals with Adenosine receptor A2a (Homo sapiens, UniProt P29274). As for the experimental part: (§1) Dissociation constants at A1, A2A and A3 receptors (Ki-values) were determined in radioligand competition experiments as reported earlier [19,20]. All binding experiments were done in a microplate format utilizing a 96-well microplate filtration system (Millipore Multiscreen MAFC). As radioligands the agonists [3H]CCPA (1 nM) for A1, [3H]NECA (10 nM) for A2A, and [3H]HEMADO (1 nM) for A3 receptors were used. Samples were incubated with 10 µg of membrane protein for 3 h at 25 °C, filtered through the built-in filter at the bottom of the wells and washed three times with […] of ice-cold binding buffer. After addition of 20 µl of scintillator to the dried filter plates samples were counted in a Wallac Micro-Beta counter. Nonspecific binding was determined in the presence of 1 mM theophylline ([3H]CCPA) or […] (N6-phenylisopropyladenosine; [3H]NECA and [3H] HEMADO).

For assay [3], the target named is T2, Adenosine receptor A1 (Homo sapiens, UniProt P30542).
T2 sequence (P30542 whole entry): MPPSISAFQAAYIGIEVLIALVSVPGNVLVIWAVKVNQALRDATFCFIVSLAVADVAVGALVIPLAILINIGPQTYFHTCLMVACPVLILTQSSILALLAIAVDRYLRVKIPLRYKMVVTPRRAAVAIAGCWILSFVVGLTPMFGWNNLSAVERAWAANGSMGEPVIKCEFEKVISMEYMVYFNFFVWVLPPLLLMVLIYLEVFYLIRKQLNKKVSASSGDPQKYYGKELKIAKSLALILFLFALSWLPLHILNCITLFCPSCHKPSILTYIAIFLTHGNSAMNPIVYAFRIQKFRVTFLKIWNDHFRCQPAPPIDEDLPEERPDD
As for the experimental part: as §1

Sequence of Adenosine receptor A2a (P29274 whole entry): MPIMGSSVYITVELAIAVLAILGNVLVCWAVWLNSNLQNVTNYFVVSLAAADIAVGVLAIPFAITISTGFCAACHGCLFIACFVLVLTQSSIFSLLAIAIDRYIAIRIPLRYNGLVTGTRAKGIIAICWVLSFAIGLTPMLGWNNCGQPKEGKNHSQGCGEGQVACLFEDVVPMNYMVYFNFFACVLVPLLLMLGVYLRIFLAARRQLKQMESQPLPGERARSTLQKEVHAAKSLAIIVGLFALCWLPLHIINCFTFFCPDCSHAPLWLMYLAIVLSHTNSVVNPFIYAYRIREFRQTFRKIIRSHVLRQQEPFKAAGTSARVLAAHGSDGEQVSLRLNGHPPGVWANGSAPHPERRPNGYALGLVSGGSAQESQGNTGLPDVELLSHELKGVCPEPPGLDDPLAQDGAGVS

As usually defined, the Ki is the dissociation constant of the complex between target and ligand, obtained from inhibition or displacement. For the compound `COC(=O)COc1cccc(-c2nc3c([nH]2)c(=O)n(C)c(=O)n3C)c1` [1,3-Dimethyl-8-[3-(2-methoxy-2-oxoethoxy)-phenyl]xanthine (14, RB-374)], the Ki was greater than 10 µM in assay [1], 0.375 µM in assay [2] and 3.95 µM in assay [3].

As for `COc1cc(-c2nc3c([nH]2)c(=O)n(C)c(=O)n3C)ccc1OCC(=O)N1CCN(C)CC1` [1,3-Dimethyl-8-[3-methoxy-4-{2-(1-methylpiperazin-4-yl)-2-oxoethoxy}-phenyl]-xanthine (15g, RB-446)], the Ki was greater than 10 µM in assay [1], 4.21 µM in assay [2] and greater than 30 µM in assay [3].

Take `COc1cc(-c2nc3c([nH]2)c(=O)n(C)c(=O)n3C)ccc1OCC(=O)N1CCOCC1` [1,3-Dimethyl-8-[3-methoxy-4-{2-(morpholin-1-yl)-2-oxoethoxy}-phenyl]xanthine (15f, RB-385)]: the Ki in assay [1] is greater than 30 µM; in assay [2] it was 2.74 µM; in assay [3], greater than 30 µM.

For the compound `COc1cc(-c2nc3c([nH]2)c(=O)n(C)c(=O)n3C)ccc1OCC(=O)N1CCCCC1` [1,3-Dimethyl-8-[3-methoxy-4-{2-(piperidin-1-yl)-2-oxoethoxy}-phenyl]xanthine (15d, RB-391)], the Ki in assay [1] is greater than 10 µM; in assay [2] it was 3.35 µM; in assay [3] it was greater than 30 µM.

With `COc1cc(-c2nc3c([nH]2)c(=O)n(C)c(=O)n3C)ccc1OCC(=O)N1CCCC1` [1,3-Dimethyl-8-[3-methoxy-4-{2-(pyrrolidin-1-yl)-2-oxoethoxy}-phenyl]xanthine (15c, RB-392)], the Ki was greater than 30 µM in assay [1], 4.57 µM in assay [2] and greater than 30 µM in assay [3].

With `CN1CCN(C(=O)COc2cccc(-c3nc4c([nH]3)c(=O)n(C)c(=O)n4C)c2)CC1` [1,3-Dimethyl-8-[3-{2-(1-methylpiperazin-4-yl)-2-oxoethoxy}-phenyl]xanthine (14g, RB-380)], the Ki in assay [1] stood at 8.21 µM; in assay [2], 0.561 µM; in assay [3], 1.9 µM.

With `CN(C)CCNC(=O)COc1cccc(-c2nc3c([nH]2)c(=O)n(C)c(=O)n3C)c1` [1,3-Dimethyl-8-[3-{2-(dimethylaminoethylamino)-2-oxoethoxy}-phenyl]xanthine (14a, RB-379)], the inhibitory constant (Ki) in assay [1] turned out to be 2.83 µM; in assay [2] it was 0.163 µM; in assay [3], 0.683 µM.

Take `Cn1c(=O)c2[nH]c(-c3cccc(OCC(=O)N4CCCCCC4)c3)nc2n(C)c1=O` [1,3-Dimethyl-8-[3-{2-(hexamethyleneimin-1-yl)-2-oxoethoxy}-phenyl]xanthine (14e, RB-376)]: the Ki was 6.28 µM in assay [1], 0.226 µM in assay [2] and 2.43 µM in assay [3].

With `COc1ccc(CCNC(=O)COc2cccc(-c3nc4c([nH]3)c(=O)n(C)c(=O)n4C)c2)cc1OC` [1,3-Dimethyl-8-[3-{2-(homoveratrylamino)-2-oxoethoxy}-phenyl]xanthine (14i, RB-377)], the Ki in assay [1] was greater than 10 µM; in assay [2], 1.39 µM; in assay [3], 5.98 µM.

As for `Cn1c(=O)c2[nH]c(-c3cccc(OCC(=O)n4ccnc4)c3)nc2n(C)c1=O` [1,3-Dimethyl-8-[3-{2-(imidazol-1-yl)-2-oxoethoxy}-phenyl]xanthine (14h, RB-445)], the figures for the Ki in assay [1], in assay [2] and in assay [3] were greater than 30 µM, 0.509 µM and greater than 30 µM, respectively.

For the compound `Cn1c(=O)c2[nH]c(-c3cccc(OCC(=O)N4CCOCC4)c3)nc2n(C)c1=O` [1,3-Dimethyl-8-[3-{2-(morpholin-1-yl)-2-oxoethoxy}-phenyl]xanthine (14f, RB-375)], the Ki in assay [1] is greater than 10 µM; in assay [2] it was 0.679 µM; in assay [3] it was 5.37 µM.

In the case of `Cn1c(=O)c2[nH]c(-c3cccc(OCC(=O)N4CCCCC4)c3)nc2n(C)c1=O` [1,3-Dimethyl-8-[3-{2-(piperidin-1-yl)]-2-oxoethoxy}-phenyl]xanthine (14d, RB-382)], the results for the Ki in assay [1], in assay [2] and in assay [3] were 4.04 µM, 0.209 µM and 1.52 µM, respectively.

(Values after BindingDB's records for doi:10.1016/j.bioorg.2016.01.003 (Panjab University, 2016).)
